Laboratory results from patent US11465989B2, “Guanidine compounds and use thereof” (IMMUNOMET THERAPEUTICS INC., priority 2014, dated 2022).
Where a name gives a salt, the structure may show the parent alone.

test system: SK-MEL-28 cells; test: Cytotoxicity in low glucose condition (MTT); type: cell-based; conditions: Homo sapiens, SK-MEL-28, 0.75 mM glucose, 72 hours, read-out: SK-MEL-28 0.75 mM glucose Cell viability (IC50 ia)
Text: The inhibition of oxidative phosphorylation (OXPHOS) is not cytotoxic to cells in normal glucose condition, because it is postulated that normal cells have compensatory mechanism under energy stress conditions such as low glucose. However OXPHOS inhibitors show cytotoxic effect on cells in the glucose deprived condition (BirsoyK, 2014). The glucose deprived condition is observed in tumor microenvironment potentially due to poor angiogenesis. Therefore the OXPHOS inhibitors may show anti-cancer effect on cancer cells in low glucose condition that may depict tumor microenvironment.
The compounds of the present invention were evaluated their cytotoxicity in SK-MEL-28, melanoma with 0.75 mM glucose supplement. The cytotoxic effect is compared with the cytotoxicity caused by phenformin. The cytotoxicity in low glucose condition is correlated with inhibition of oxygen consumption in mitochondria.
SK-MEL-28 (HTB-72) is a melanoma cell line obtained from ATCC (MA) and cultured in RPMI 1640 media (Lifetechnologies, CA) with supplement of 10% FBS and antibiotic-antimycotic (Lifetechnologies, CA). RPMI 1640 (-Glucose) was used to prepare low glucose media and 0.75 mM glucose was supplied with D-(+)-glucose solution from Sigma. SK-MEL-28 cells were separated from culture plate using 0.5% trypsin-EDTA and 5,000 cells were plated in 96-well plate with low glucose media. After incubation at 37° C. for 24 hour, 5% CO2, the cells were treated with the compounds of present invention in FBS-free media for 72 hours. The cytotoxicity was measured by the MTT (AMRESCO, OH) assay. NADH-dependent cellular oxidoreductase reduces MTT to its insoluble […] with purple color. The enzyme depends on cell number or energy state of cells. 10 μl of 5 mg/ml MIT solution was added to each well of the assay plate and skip the well for blank. The plate was incubated at 37° C. and 5% CO2 for 2 hours. The MTT solution was removed from each well and 100 μl of DMSO was added. The plate was read by VICTOR X3 Multilabel Counter at the wavelength of 550 nm. In Table 2, the levels of IC50 are evaluated by the following criteria.

| SMILES | IC50 |
| --- | --- |
| COc1cc(I)ccc1CCNC(=N)NC(=N)N [Example 79, N-1-(2-methoxy-4-iodo)phenethylbiguanide hydrochloride] | 5 to 10 µM |
| Cc1cc(CCNC(=N)NC(=N)N)ccc1Cl [Example 61, N-1-(4-chloro-3-methyl)phenethylbiguanide hydrochloride] | < 5 µM |
| COc1cc(Cl)ccc1CCNC(=N)NC(=N)N [Example 80, N-1-(2-methoxy-4-chloro)phenethylbiguanide hydrochloride] | > 10 µM |
| Cc1ccc(CCNC(=N)N)cc1C [Example 133, 1-(3,4-dimethylphenethyl)guanide hydrochloride] | 5 to 10 µM |
| N=C(N)NC(=N)NCc1ccc(-c2ccccc2)cc1 [Example 49, N-1-(4-phenyl)benzylbiguanide hydrochloride] | > 10 µM |
| N=C(N)NC(=N)NCc1ccc(Cl)c(Cl)c1 [Example 37, hydrochloride] | 5 to 10 µM |
| CONC(=N)NC(=N)NCCc1ccc(Cl)c(Cl)c1 [Example 129, N-1-methoxy-N-5-(3,4-dichloro)phenethylbiguanide hydrochloride] | > 10 µM |
| CNC(=N)NC(=N)NCCc1ccccc1 [Example 124, N-1-methyl-N-5-phenethylbiguanide hydrochloride] | > 10 µM |
| C/N=C(\NC)NC(=N)NCCc1ccc(Cl)c(Cl)c1 [Example 132, N-1-methyl-N-2-methyl-N-5-(3,4-dichloro)phenethylbiguanide hydrochloride] | > 10 µM |

test system: A549 cells; test: Inhibition of OCR (XF Analyzer); type: cell-based; conditions: Homo sapiens, A549, 24 h
Text: The electron transfer complex in mitochondria is composed of 5 complexes. The complex I accept electrons from NADH produced from glycolysis and TCA cycle and the electrons move to complex […] and the electron is finally transferred to O2 and water molecule is generated. During the electron transfer, proton gradient is generated and the chemical gradient is a driving source to synthesize ATP at complex V. The mitochondrial inhibition of complex I indirectly assessed by measuring the oxygen consumption rate (OCR) at complex IV. […] The solution outside of cells becomes acidic (lower pH) as lactate is transported to outside of cells. OCR and Extracellular acidification rate (ECAR) are determined by XF Analyzer (Seahorse Biosciences).
A549 cells were purchased from American Type Tissue Culture Collection ([…]) and cultured in RPMI 1640 supplied with 10% fetal bovine serum (FBS) and antibiotic-antimycotic (Lifetech, CA). A549 cells were separated with 0.5% Trypsin-EDTA and 3,000 cells were plated on 1 mg/ml poly-D-lysine (Sigma, P6407) coated XF 96 well […]. A549 cells were allowed to adhere to the wells for 24 hours under the condition of temperature, 37° C. and 5% CO2 The sensor cartridge of XF Analyzer was soaked in 200 Ad of Calibrant solution (Seahorse, MA) in a clear 96-well plate at 37° C. for 24 hours. The compounds of the present invention were diluted with RPMI 1640 without FBS, transferred to A549 cells on XF 96 well plate, and incubated further for 23 hours at 37° C. and 5% CO2. After incubation, the compound solution was exchanged with pre-warmed and pH adjusted (pH7.4) XF assay media (Seahorse) supplied with 15 mM D-glucose (Sigma), 15 mM sodium pyruvate (Lifetechnologies, CA) and 4 mM L-glutamine (Lifetechnologies, CA). The compounds of present invention were prepared in XF Assay media and added to the assay plate. The assay plate was equilibrated in XF Analyzer for 1 hour, and the reading were started by sensor cartridge. The cytotoxicity assay was followed using Cyquant (Lifetechnologies, CA) in order to calibrate the inhibition with cytotoxicity of compounds. The concentrations of the compounds were tested at […] and IC50 value was obtained from the inhibited values. That is, from OCR inhibition values at each concentration of the compound, IC50 was calculated according to Prism's dose response curve fitting.
In Table 1, the levels of OCR IC50 are evaluated by the following.

| SMILES | IC50 |
| --- | --- |
| COc1cc(I)ccc1CCNC(=N)NC(=N)N [Example 79, N-1-(2-methoxy-4-iodo)phenethylbiguanide hydrochloride] | < 2 µM |
| N=C(N)NCCc1ccc(CCc2ccccc2)cc1 [Example 187, 1-(4-phenethylphenethyl)guanide hydrochloride] | > 5 µM |
| Cc1cc(CCNC(=N)NC(=N)N)ccc1Cl [Example 61, N-1-(4-chloro-3-methyl)phenethylbiguanide hydrochloride] | 2 to 5 µM |
| COc1cc(Cl)ccc1CCNC(=N)NC(=N)N [Example 80, N-1-(2-methoxy-4-chloro)phenethylbiguanide hydrochloride] | < 2 µM |
| Cc1ccc(CCNC(=N)N)cc1C [Example 133, 1-(3,4-dimethylphenethyl)guanide hydrochloride] | < 2 µM |
| N=C(N)NC(=N)NCc1ccc(-c2ccccc2)cc1 [Example 49, N-1-(4-phenyl)benzylbiguanide hydrochloride] | > 5 µM |
| N=C(N)NC(=N)NCc1ccc(Cl)c(Cl)c1 [Example 37, hydrochloride] | > 5 µM |
| Cc1ccc(CCNC(=N)NC(=N)N)cc1 [Example 10, N-1-(4-methyl)phenethylbiguanide hydrochloride] | > 5 µM |
| COc1cccc(CCNC(=N)NC(=N)N)c1 [Example 8, N-1-(3-methoxy)phenethylbiguanide hydrochloride] | 2 to 5 µM |
| CCCNC(=N)NC(=N)NCCc1ccc2c(c1)CCCC2 [Example 127, N-1-propyl-N-5-(2-(5,6,7,8-tetrahydronaphthalen-2-yl)ethyl) biguanide hydrochloride] | > 5 µM |
| N=C(N)NCc1ccc(-c2ccccc2)cc1 [Example 200, N-(4-phenyl)benzyl guanide hydrochloride] | 2 to 5 µM |
| N=C(N)NCCCc1ccccc1 [Example 165, 1-(3-phenylpropyl)guanide hydrochloride] | 2 to 5 µM |
| N=C(N)NC(=N)NCCC1CCCCC1 [Example 32, N-1-2-cyclohexylethylbiguanide hydrochloride] | > 5 µM |
| N=C(N)NCCc1cccc(F)c1 [Example 178, 1-(3-fluorophenethyl)guanide hydrochloride] | > 5 µM |
| Cc1ccc(CNC(=N)N)cc1 [Example 151, 1-(4-methylbenzyl)guanide hydrochloride] | > 5 µM |
| CN(CCc1ccc(F)cc1)C(=N)N [Example 174, 1-(4-fluorophenethyl)-1-methyl guanide hydrochloride] | > 5 µM |
| Cc1ccc(CNC(=N)NC(=N)N)cc1C [Example 28, N-1-(3,4-dimethyl)benzylbiguanide hydrochloride] | 2 to 5 µM |
| N=C(N)NC(=N)NCCc1ccccc1F [Example 9, N-1-(2-fluoro)phenethylbiguanide hydrochloride] | > 5 µM |
| N=C(N)NCc1ccc(Oc2ccccc2)cc1 [Example 203, 1-(4-phenoxybenzyl) guanide hydrochloride] | 2 to 5 µM |
| Cc1cc(CCNC(=N)N)ccc1Cl [Example 206, 1-(4-chloro-3-methylphenthyl)guanide hydrochloride] | < 2 µM |
| N=C(N)NC(=N)NCc1cccc2ccccc12 [Example 31, hydrochloride] | > 5 µM |

| SMILES | IC50 |
| --- | --- |
| Cc1cc(CNC(=N)N)ccc1Br [Example 207, 1-(4-bromo-3-methylbenzyl) guanide hydrochloride] | > 5 µM |
| N=C(N)NC(=N)NCCc1ccc(Cl)cc1Cl [Example 4, N-1-(2,4-dichloro)phenethylbiguanide hydrochloride] | 2 to 5 µM |
| N=C(N)NC(=N)NCc1ccc(Oc2ccccc2)cc1 [Example 56, N-1-(4-phenoxy)benzylbiguanide hydrochloride] | > 5 µM |
| N=C(N)NCc1ccc2ccccc2c1 [Example 198, 11-(naphthalen-2-ylmethyl)guanide hydrochloride] | 2 to 5 µM |
| Cc1ccc(CCNC(=N)N)c(C)c1 [Example 155, 1-(2,4-dimethylphenethyl)guanide hydrochloride] | < 2 µM |
| CN(CCCc1ccccc1)C(=N)N [Example 188, 1-methyl-1-(3-phenylpropyl)guanide hydrochloride] | > 5 µM |
| CC(C)c1ccc(CCNC(=N)NC(=N)N)cc1 [Example 14, N-1-(4-isopropyl)phenethylbiguanide hydrochloride] | > 5 µM |
| N=C(N)NC(=N)NCCc1ccc(CCc2ccccc2)cc1 [Example 27, N-1-(4-phenethyl)phenethylbiguanide hydrochloride] | 2 to 5 µM |
| N=C(N)NC(=N)NCCc1ccc(Br)c(Cl)c1 [Example 73, N-1-(4-bromo-3-chloro)phenethylbiguanide hydrochloride] | 2 to 5 µM |
| N=C(N)NCCc1ccc(Cl)c(Cl)c1 [Example 140, 1-(3,4-dichlorophenethyl)guanide hydrochloride] | 2 to 5 µM |
| C[C@H](CNC(=N)N)c1ccccc1 [Example 175, (S)-1-(2-phenylpropyl)guanide hydrochloride] | > 5 µM |
| N=C(N)NC(=N)NCc1cccc(Cl)c1 [Example 41, N-1-(3-chloro)benzylbiguanide hydrochloride] | > 5 µM |
| Cc1ccc(CCNC(=N)NC(=N)N)c(C)c1 [Example 16, N-1-(2,4-dimethyl)phenethylbiguanide hydrochloride] | 2 to 5 µM |
| N=C(N)NC1Cc2ccccc2C1 [Example 137, 1-(2,3-dihydro-1H-inden-2-yl)guanide hydrochloride] | 2 to 5 µM |
| N=C(N)NCCC1CC1 [Example 190, 1-(2-cyclopropylethyl)guanide hydrochloride] | 2 to 5 µM |
| N=C(N)NC(=N)NCCCc1ccc(C2CC2)cc1 [Example 47, N-1-1-(3-(4-cyclopropylphenyl)propyl)biguanide hydrochloride] | > 5 µM |
| N=C(N)NCCc1cccc2c1CCCC2 [Example 192, hydrochloride] | 2 to 5 µM |
| N=C(N)NC(=N)NCc1ccc2ccccc2c1 [Example 45, hydrochloride] | 2 to 5 µM |
| N=C(N)NCc1ccc(Br)cc1 [Example 184, 1-(4-bromobenzyl)guanide hydrochloride] | > 5 µM |
| Cc1ccc(CCNC(=N)N)cc1 [Example 138, 1-(4-methylphenethyl)guanide hydrochloride] | 2 to 5 µM |
| COc1ccc(CCCNC(=N)N)cc1 [Example 185, 1-(3-(4-methoxyphenyl)propyl)guanide hydrochloride] | > 5 µM |
